Results published in patent US11964980B2, “Crystalline forms of (S)-1-(4-fluorophenyl)-1-(2-(4-(6-(1-methyl-1H-pyrazol-4-yl)pyrrolo[2,1- f][1,2,4]triazin-4-yl)piperazinyl)-pyrimidin-5-yl)ethan-1-amine and methods of making” (Blueprint Medicines Corporation, priority 2019, dated 2024).
In brackets after ≈: the same amount, converted by molar mass.

Assays:
[1] = Stability comparison of the crystalline forms; assay type: physicochemical; settings: ambient temperature
[2] = for Solubility, FaSSGF: pH 1.67; for Solubility, FaSSIF: pH 6.57
Protocol: Fasted simulated intestinal fluid (FaSSIF) (pH=6.57) was prepared by dissolving NaOH pellets (0.105 g), NaH2PO4·H2O (0.9875 g), and NaCl (1.5475 g) in distilled water (225 mL) and adjusting the pH to 6.57 by adding 1 N NaOH solution and 1 N HCl. Water was then added to a volume of 250 mL to produce phosphate buffer. Biorelevant powder (0.56 g) was dissolved in the phosphate buffer (125 mL), then made up to 250 mL using phosphate buffer. The prepared solution was left standing for 2 hours and then used for solubility measurements.
Fasted simulated gastric fluid (FaSSGF) (pH=1.67) was prepared by dissolving NaCl (0.5 g) in distilled water (225 mL). The pH was adjusted to 1.67 using 1 N HCl, then the solution was made up to 250 mL using distilled water to produce NaCl/HCl solution. Biorelevant powder (0.015 g) was dissolved in NaCl/HCl solution (125 mL), then made up to 250 mL using NaCl/HCl solution. The prepared solution was ready for use.
Solubility of crystalline Form A and a mixture of crystalline Form A and crystalline Form C was measured in fasted simulated intestinal fluid (FaSSIF), fasted simulated gastric fluid (FaSSGF), and water at 37° C. Thin slurries were stirred overnight and then supernatant was collected for HPLC analysis.
Solubility of crystalline Form H of a hydrochloride salt of Compound (I), crystalline Form Tr of a tartrate salt of Compound (I), and crystalline Form T of a tosylate salt of Compound (I) was measured in fasted state simulated intestinal fluid (FaSSIF), fasted state simulated gastric fluid (FaSSGF), and water at 37° C. About 1.5 mL solution was stirred at 37° C. The salt was then added incrementally until a thin slurry was formed, followed by stirring overnight. The solids were allowed to settle, and the pH of the supernatant was taken. Supernatant was recovered for injection to HPLC and solids were recovered for XRPD.
Solubility was determined based on interpolation from a calibration curve prepared using freebase.

[3] = tested on: patients; assay: Clinical trials employing crystalline Form A: adverse effects; assay type: in vivo, human
Excerpt: In clinical trials employing crystalline Form A of Compound (I), adverse effects were categorized by severity into Grades 1-5. Most adverse events reported were Grade 1 or 2, indicating crystalline Form A of Compound (I) is well-tolerated. […] Severe dose limiting toxicities for other TKIs may be a result of inhibiting a broad range of kinases.

[4] = Dynamic vapor sorption (DVS); assay type: physicochemical
Protocol: DVS: Dynamic Vapor Sorption (DVS) was performed using a DVS Intrinsic 1. The sample was loaded into a sample pan and suspended from a microbalance. A typical sample mass for DVS measurement was 25 mg. Nitrogen gas bubbled through distilled water provided the desired relative humidity. A typical measurement comprised the following steps: • 1. Equilibrate at 50% RH • 2. 50% to 2%. (50%, 40%, 30%, 20%, 10%, and 2%) • a. Hold minimum of 5 minutes and maximum of 60 minutes at each humidity. The pass criteria was less than 0.002% change; • 3. 2% to 95% (2%, 10%, 20%, 30%, 40%, 50%, 60%, 70%, 80%, 90%, 95%) • a. Hold minimum of 5 minutes and maximum of 60 minutes at each humidity. The pass criteria was less than 0.002% change; • 4. 95% to 2% (95%, 80%, 70%, 60%, 50%, 40%, 30%, 20%, 10%, 2%) • a. Hold minimum of 5 minutes and maximum of 60 minutes at each humidity. The pass criteria was less than 0.002% change; • 5. 2% to 50% (2%, 10%, 20%, 30%, 40%, 50%) • a. Hold minimum of 5 minutes and maximum of 60 minutes at each humidity. The pass criteria was less than 0.002% change.

[5] = XRPD of solids recovered from the solubility slurries; assay type: physicochemical; settings: 37° C.; for Stability of crystalline form upon slurrying (XRPD): overnight
Protocol: XRPD: X-ray powder diffraction was done using a Rigaku MiniFlex 600. Samples were prepared on Si zero-return wafers. Typical scans were obtained from 20 of 4 to 30 degrees, with step size 0.05 degrees over five minutes with 40 kV and 15 mA. High resolution scans were obtained from 20 of 4 to 40 degrees, with step size 0.05 degrees over thirty minutes with 40 kV and 15 mA. Typical parameters for XRPD are listed below.
Solids were recovered from the slurries for analysis by XRPD. Crystalline Form H was stable upon slurrying in all solutions. Crystalline Form Tr was stable upon slurrying in water.

SMILES	Solubility, FaSSGF [2]	Weight change in DVS experiment ([4]; 2-95% RH at 25° C.)	Weight change in DVS experiment ([4]; 2-95% RH at 40° C.)	Solubility, FaSSIF [2]	Weight change in DVS experiment ([4]; 2-95% RH at room temperature)	also measured
Cn1cc(-c2cc3c(N4CCN(c5ncc([C@@](C)(N)c6ccc(F)cc6)cn5)CC4)ncnn3c2)cn1 [crystalline Form A, (S)-1-(4-fluorophenyl)-1-(2-(4-(6-(1-methyl-1H-pyrazol-4-yl)pyrrolo[2,1-f][1,2,4]triazin-4-yl)piperazin-1-yl)pyrimidin-5-yl)ethan-1-amine]	2110 µg/mL (≈ 4.23 mM)	0.42%	0.29%			Stability relative to the other crystalline forms [1]: more stable; Severe dose limiting toxicities observed for other TKIs (dermatologic, hepatic, cardiovascular) [3]: did not exhibit; Severity grade of most adverse events reported ([3]; Grades 1-5): Grade 1 or 2; Hygroscopicity by DVS analysis [4]: non-hygroscopic; Weight change in DVS experiment ([4]; 70-95% RH at 40° C.): 0.20%; Moisture uptake by weight ([4]; exposed to 40° C. and up to 95% relative humidity): up to 0.44%
Cn1cc(-c2cc3c(N4CCN(c5ncc([C@@](C)(N)c6ccc(F)cc6)cn5)CC4)ncnn3c2)cn1 [crystalline Form C, (S)-1-(4-fluorophenyl)-1-(2-(4-(6-(1-methyl-1H-pyrazol-4-yl)pyrrolo[2,1-f][1,2,4]triazin-4-yl)piperazin-1-yl)pyrimidin-5-yl)ethan-1-amine]	2720 µg/mL (≈ 5.46 mM)	2.90%	2.99%	30 µg/mL (≈ 0.0602 mM)		Weight change in DVS experiment ([4]; 2-10% RH at 25° C.): 1.76%; Weight change in DVS experiment ([4]; 2-10% RH at 40° C.): 1.93%
Cn1cc(-c2cc3c(N4CCN(c5ncc([C@@](C)(N)c6ccc(F)cc6)cn5)CC4)ncnn3c2)cn1 [crystalline Form H]	4180 µg/mL (≈ 8.38 mM)			100 µg/mL (≈ 0.201 mM)	15%	Weight change in DVS experiment ([4]; 80-95% RH at room temperature): 10.8%; Stability of crystalline form upon slurrying (XRPD) ([5]; all solutions (FaSSIF, FaSSGF, water)): stable
Cn1cc(-c2cc3c(N4CCN(c5ncc([C@@](C)(N)c6ccc(F)cc6)cn5)CC4)ncnn3c2)cn1 [crystalline Form T]	1880 µg/mL (≈ 3.77 mM)			80 µg/mL (≈ 0.16 mM)		
Cn1cc(-c2cc3c(N4CCN(c5ncc([C@@](C)(N)c6ccc(F)cc6)cn5)CC4)ncnn3c2)cn1 [crystalline Form Tr]	4790 µg/mL (≈ 9.61 mM)			270 µg/mL (≈ 0.542 mM)	4.4%	Stability of crystalline form upon slurrying (XRPD) ([5]; FaSSGF): converted into crystalline Form H; Behaviour of solid in slurry ([5]; FaSSIF): gummed; Stability of crystalline form upon slurrying (XRPD) ([5]; water): stable
